From patent US8383130B2, “Partial peptide of lacritin” (Senju Pharmaceutical Co., Ltd., priority 2008, dated 2013)

Experiments:
Format in all cases: cell-based
[1] = system: monkey lacrimal gland acinar cells; test: Secretion of tear protein (lactoferrin) from monkey lacrimal gland acinar cells; settings: 1 μM polypeptide; for lactoferrin secretion amount (ng/10^5 cells): 37° C. 10 min, westernblot, human lactoferrin as standard
Description: Monkey lacrimal gland was chopped in a DMEM/F12 medium (Invitrogen Corporation) and treated with HBSS (Invitrogen Corporation) containing 0.76 mg/mL EDTA (Sigma-Aldrich Co.) and DMEM/F12 medium containing 200 U/mL collagenase A (Roche), 698 U/mL Hyarulonidase (Worthington Biochemical Corporation) and 10 U/mL DNase (Roche Diagnostics K.K.), and the cells were isolated. 1×10^6 cells were sown on a 6 well plate (ASAHI GLASS CO., LTD.) coated with 0.01 mg/cm^2 Collagen I (Becton, Dickinson and Company), and cultured in a CO2 incubator at 37° C. overnight. The next day, the medium was changed to a supplement-free DMEM/F12 medium and the cells were pre-incubated at 37° C. for 30 min, and then incubated in a DMEM/F12 medium containing 1 μM polypeptide 1 or 4 at 37° C. for 10 min. Lactoferrin as a tear protein secreted in the medium was detected by westernblot, and quantified using human lactoferrin (Sigma-Aldrich Co.) as the standard. The collected medium was purified by 2D clean up kit (Bio-Rad Laboratories, Inc.), dissolved in NuPAGE LDS sample buffer (Invitrogen Corporation), and thermally denatured at 70° C. for 10 min. An equivalent amount of a sample was electrophoresed in 4-12% NuPAGE Bis Tris gel in MES buffer (Invitrogen Corporation) at 200 V for 35 min, and blotted on a PVDF membrane (Nihon Millipore K.K.) at 100 V for 60 min using Trans Blot Mini Cell (Bio-Rad Laboratories, Inc.). The membrane was blocked with TTBS (Bio-Rad Laboratories, Inc.) containing 5% skim-milk (Bio-Rad Laboratories, Inc.) at room temperature for 30 min, and reacted overnight at 4° C. with lactoferrin antibody (manufactured in rabbit, Sigma-Aldrich Co.) diluted 1000-fold. After washing the membrane with TTBS, the membrane was reacted at room temperature for 60 min with secondary antibody of anti-rabbit HRP, which was diluted 5000-fold. Then detection using ECL plus (GE healthcare) was performed. In addition, the amount of the secreted lactoferrin was quantified by forming an analytical curve of human lactoferrin on the same membrane, and comparing the density of the bands.

[2] = system: human corneal epithelial cells (HCE-T); test: Adhesion of human corneal epithelial cell to extracellular matrix (Experimental Example 2); settings: polypeptide 10 μM in PBS, 50 μL per well, collagen type IV coated plate, 37° C. 25 min, MTT assay, no addition of polypeptide = 100%
Description: (§1) An extracellular matrix solution (10 μg/mL, collagen type IV: Becton, Dickinson and Company) was added to a 96 well plate (Iwaki Glass Company, Limited). The solution was incubated at 37° C. for 1 hr to coat the plate with the extracellular matrix. After the redundant extracellular matrix solution was removed, 0.1% BSA solution (Sigma-Aldrich Co.) was added to block the region not coated with the extracellular matrix. Successively, the BSA solution was removed and the plate was washed three times with PBS, and polypeptides 4, 6 and 7 synthesized in Example 2 and Comparative Example 1 were suspended in PBS to a final concentration of 10 μM, and the suspension was added by 50 μL per well. Furthermore, established human corneal epithelial cells (HCE-T: can be prepared by the method described in Invest Ophthalmol Vis Sci. 1995, 36, 614) were cultured overnight under serum-free conditions and added to the plate at 2×10^4 cells/100 μL DMEM/F12 medium/well. The plate was incubated at 37° C. for 25 min to allow adhesion of the cells to the well. The number of the adhered cells was counted by MTT assay (DOJINDO LABORATORIES).

[3] = system: human corneal epithelial cells (HCE-T); test: Adhesion of human corneal epithelial cell to extracellular matrix (Experimental Example 1); settings: polypeptide 100 μg/mL, 50 μL per well, collagen type IV coated plate, 37° C. 20 min, MTT assay, no addition of polypeptide = 100%
Description: as §1, with “washed twice” for “washed three times”, “polypeptides 1-5 (concentration 100 μg/mL)” for “polypeptides 4, 6 and 7”, “Example 1” for “Example 2”, “were” for “were suspended in PBS to a final concentration of 10 μM, and the suspension was”, “for 20” for “for 25”, “the plate.” for “the well.”

Sequence | lactoferrin secretion amount (ng/10^5 cells) [1] [ng/10^5 cells] | cell adhesion rate (%) [2] [%] | cell adhesion rate (%) [3] [%] | promotion of secretion of lactoferrin (in words) ([1]; 10 min)
EISGPAEPASPPETTTTAQETSAAAVQGTAKVT (listed as Homo sapiens) [polypeptide 4, reference compound] | 2.79 | 107 | 100 | –
EISGPAEPASPPETTTTAQETSAAAVQGTAKVTSSRQELNPLKSIVEKSILLTEQALAKA (listed as Homo sapiens) [polypeptide 7] | – | 190 | – | –
QGTAKVTSSRQELNPL (listed as Homo sapiens) [polypeptide 5, reference compound] | – | – | 98 | –
QGTAKVTSSRQELNPLKSIVEKSILLTEQALAKA (listed as Homo sapiens) [polypeptide 6] | – | 160 | – | –
QGTAKVTSSRQELNPLKSIVEKSILLTEQALAKAGKGMHGGVPGG (listed as Homo sapiens) [polypeptide 2] | – | – | 134 | –
QGTAKVTSSRQELNPLKSIVEKSILLTEQALAKAGKGMHGGVPGGKQFIENGSEF (listed as Homo sapiens) [polypeptide 3] | – | – | 147 | –
VQGTAKVTSSRQELNPLKSIVEKSILLTEQALAKA (listed as Homo sapiens) [polypeptide 1] | 11.7 | – | 147 | promoted the secretion of lactoferrin
